One data set has as its system hMSC. The data set is described as follows: Albumin ELISA, ALB secretion by hMSC. The settings on record: for ALB secreted: sequential + 1 μM TSA from day 6. Format: cell-based, human. On the procedure:
Low-density hMSC (CD45^−, Thy^+) were cultivated at 21.5 10^3 cells cm^2 on 1 mg/ml collagen gel type I matrix in the presence of liver-specific (LSP) cytokines, added either as a cocktail [basal medium supplemented with 10 ng/ml FGF-4 (fibroblast growth factor type 4), 20 ng/ml HGF (hepatic growth factor) (all from R&D), 1×ITS (insulin, transferrin, selenious acid) and 0.05 μM Dex (dexamethasone) (all from Sigma)] or sequentially [basal medium supplemented with 10 ng/ml FGF-4, following basal media supplemented with 20 ng/ml HGF (R&D) and finally basal medium supplemented with 20 ng/ml HGF, 1×ITS and 0.05 μM Dex]. Basal medium consisted of 60% (v/v) DMEM-LG/40% (v/v) MCDB-201 supplemented with 1 mg/ml LA-BSA, 100 IU/ml penicillin, 100 μg/ml streptomycin, 0.1 mM L-ascorbic acid, 4 μg/ml nicotinamide, 27.3 mg/l sodium-pyruvate and 1.623 mM glutamin (all from Sigma). The media were changed every three days.
ALB concentrations secreted into the media were analysed by a competitive enzyme-linked immunosorbent assay (ELISA) as described (Koebe et al. Int J Artif Organs 17: 95-106, 1994). The ALB levels were normalized with respect to the media used.
In general terms: In an ELISA, binding on a coated surface is turned into a signal by an enzyme label.

The next data set concerns CYP 1A1. The data set is described as follows: CYP 1A1 activity (ethoxyresorufin conversion) in cultured rat hepatocytes. The class given is cell-based. The source says: Hepatocytes were isolated from male Sprague-Dawley rats by a two-step collagenase perfusion as described (De Smet et al. In ‘Methods in Molecular Biology, Vol. 107: Cytochrome P450 Protocols’, Philips IR and Shephard E A, eds., p.p 295-301, Humana Press, Totowa, 1998). Hepatocytes were cultivated in monolayer cultures with Willam's E Medium (WE) for 7 days. […] The maintenance of differentiation characteristics was studied after 2, 4, and 7 days (D2, D4, D7) of culture.
Phase I biotransformation was assessed by means of activity measurements of the microsomal cytochrome P450 (CYP) 1A1 and 2B1/2 iso-enzymes, using standard techniques known in the art (i.e., measuring conversion of ethoxyresorufin into hydroxyresorufin for CYP 1A1 and conversion of penthoxyresorufin to hydroxyresorufin for CYP 2B1/2) (Burke et al. Drug Metab Dispos 2:583-588, 1974). Microsomes were prepared from freshly isolated and hepatocytes cultured for 7 days according to Hales et al. (Biochem Pharmacol 26:555-556, 1977).

Data set [1] can be described thus: Biotransformation by rat liver microsomes. Format: in vitro ADME. Conditions: 140 μM TSA, 150 min. On the procedure:
Human liver specimens (n=3) were acquired from organ donors at the Academic Hospital of the VUB in accordance with the regulations of the local Medical Ethical Committee and immediately frozen in liquid nitrogen. While human liver microsomes were prepared from frozen liver tissue, rat livers (n=3) were freshly isolated for immediate microsome preparation. Microsomal 7-ethoxyresorufin-O-deethylase (EROD) [31]was used as a marker enzyme to evaluate the microsomal biotransformation activity before and after storage. Incubations were carried out in a 100 mM sodium potassium phosphate buffer pH 7.4 in the presence of a NADPH-generating system (0.5 mM NADP^+, 10 mM glucose 6-phosphate, 2 U/ml glucose 6-phosphate dehydrogenase and 0.6 mM MgCl2). Microsomes (0.0-2.0 mg microsomal protein/ml) were incubated with 140 μM substrate at 37° C. for 150 min. Boiled microsomes ([…]) served as a control. Biotransformation reactions were initiated by addition of substrate and, at selected time intervals, terminated by dilution with ice-cold acetonitrile (1:2.5).
After centrifugation (2000 g, 45 min, 4° C.) of the diluted microsomal samples, the clear supernatant was injected onto a HPLC column. Samples from incubations with hepatocytes were thawed on ice and centrifugated (120 g, 2 min). […]

The subject of another data set is primary rat hepatocytes. The data set is described as follows: Biotransformation in hepatocyte culture by HPLC with ESI-MS/UV. Format: in vitro ADME. The settings on record: 50 μM; after 20 hours. On the procedure:
Cells were cultured for 24 hours in the presence of EGF, alone or in combination with 4-Me2N-BAVAH; culture media were renewed and the expression of p21 was subsequently analyzed at short time intervals (0.5, 1, 6 and 24 hours) (FIG. 18B). In untreated EGF-stimulated hepatocytes, cyclin D1 and p21 proteins were induced 0.5 hour after medium renewal. A maximum was reached 24 hours later, namely after 48 hours of culture. As expected, no cyclin D1 and p21 proteins could be detected in 4-Me2N-BAVAH-treated cells, not even after short exposure periods (FIG. 18B). In addition, we quantified the biotransformation rate of 4-Me2N-BAVAH using high-performance liquid chromatography (HPLC) combined with simultaneous electrospray ionization mass spectrometric (ESI-MS)/UV detection. […] These findings clearly indicate that 4-Me2N-BAVAH interferes with the mitogenic effects of EGF resulting in a failure to induce cyclin D1 and p21 expression.

Here are results for two compounds from US20090130064A1, “DIFFERENTIATION OF STEM CELLS AND STABILIZATION OF PHENOTYPICAL PROPERTIES OF PRIMARY CELLS” (priority 2004, published 2009).

With `CC(C=CC(=O)NO)=CC(C)C(=O)c1ccc(N(C)C)cc1` (stereo not drawn) [TSA], the ALB secretion result with hMSC (cocktail + 1 μM TSA, not significant) is on record as “upregulation”. Besides, the ALB levels with hMSC (conditioned medium, sequential + TSA, day 17) is 2.26 ± 0.092 µg/mL. In addition, the “difference in ALB secretion between cells with and without TSA” value with hMSC (conditioned medium, sequential, TSA day 0 until HGF, day 15) is recorded as 2.28 fold. Moreover, the results for the ALB secreted in the data set on hMSC (day 15) and in the data set on hMSC (day 17) were 2.019 ± 0.144 µg/mL and 3.456 ± 0.08 µg/mL, respectively. For the same compound, in the data set on CYP 1A1 (1 μM TSA starting at 0 h or 4 h, day 4 and 7), the “activity of CYP 1A1 versus EtOH-treated controls” value is given as “significantly higher”. In addition, the “CYP 1A1/2 Activity” value with CYP 1A1 (7-day conventionally cultured adult rat hepatocytes, 1 μm TSA) is 4.3 ± 0.6 pmol resorufin/minute mg microsomal protein. The “biotransformation in microsome suspensions” value in data set [1] is “slow and incomplete biotransformation”.
For `CN(C)c1ccc(C(=O)NCCCCC(=O)NO)cc1` [4-Me2N-BAVAH, 5-(4-dimethylaminobenzoyl)-aminovaleric acid hydroxamide], in the data set with primary rat hepatocytes, the “metabolites detected in culture” value is on record as “No metabolites of the compound could be detected”.
